These are literature values, as cited in US4898737A, “Controlled absorption pharmaceutical composition” (Elan Corporation plc, priority 1983, dated 1990).

Take `CC(C)NCC(O)COc1cccc2ccccc12` (stereo not drawn) [propranolol, 1-(isopropylamino)-3-(1-naphthyloxy)-2-propanol]: the “time of peak plasma concentrations” value (after a single oral dose) is on record as “one to two”. Also, for the setting “oral”, the metabolism entry was “extensively and rapidly metabolised”; the urinary excretion result was “excreted in the urine as free and conjugated propranolol and as metabolites”.
